In BigSolDB 2.1:

COc1cc([N+](=O)[O-])c(OC)cc1Cl
Conditions | solubility (mole fraction)
in ethanol, 276.95 K | 0.00042
in ethanol, 281.05 K | 0.000522
in ethanol, 285.25 K | 0.000644
in ethanol, 288.25 K | 0.000757
in ethanol, 291.45 K | 0.000892
in ethanol, 295.75 K | 0.00109
in ethanol, 300.15 K | 0.00135
in ethanol, 305.55 K | 0.00172
in ethanol, 310.45 K | 0.00219
in ethanol, 314.85 K | 0.00274
in ethanol, 319.65 K | 0.0034
in ethanol, 323.65 K | 0.00409
in ethanol, 327.25 K | 0.0048
in ethanol, 330.25 K | 0.00558
in ethanol, 333.35 K | 0.00649
in ethanol, 336.65 K | 0.00764
in ethanol, 340.45 K | 0.00921
in m-xylene, 277.05 K | 0.00728
in m-xylene, 279.95 K | 0.00788
in m-xylene, 283.15 K | 0.00872
in m-xylene, 286.15 K | 0.00994
in m-xylene, 290.05 K | 0.0118
in m-xylene, 295.35 K | 0.0146
in m-xylene, 300.75 K | 0.0178
in m-xylene, 305.05 K | 0.0209
in m-xylene, 308.85 K | 0.024
in m-xylene, 312.15 K | 0.0272
in m-xylene, 315.45 K | 0.0305
in m-xylene, 318.55 K | 0.0341
in m-xylene, 321.75 K | 0.0382
in m-xylene, 325.05 K | 0.0432
in m-xylene, 328.45 K | 0.049
in m-xylene, 332.05 K | 0.0561
in m-xylene, 335.35 K | 0.0645
in m-xylene, 338.95 K | 0.0747
in methanol, 279.35 K | 0.000449
in methanol, 282.75 K | 0.000517
in methanol, 285.55 K | 0.000598
in methanol, 288.85 K | 0.000716
in methanol, 293.45 K | 0.000895
in methanol, 297.55 K | 0.00109
in methanol, 301.75 K | 0.00131
in methanol, 305.85 K | 0.00156
in methanol, 309.55 K | 0.00187
in methanol, 313.25 K | 0.00223
in methanol, 316.85 K | 0.00266
in methanol, 320.75 K | 0.00318
in methanol, 324.85 K | 0.00383
in methanol, 329.05 K | 0.00464
in o-xylene, 277.75 K | 0.00864
in o-xylene, 280.45 K | 0.00956
in o-xylene, 283.55 K | 0.0107
in o-xylene, 287.05 K | 0.0123
in o-xylene, 291.45 K | 0.0145
in o-xylene, 296.25 K | 0.0174
in o-xylene, 301.25 K | 0.0209
in o-xylene, 305.65 K | 0.0245
in o-xylene, 309.45 K | 0.0283
in o-xylene, 313.25 K | 0.0323
in o-xylene, 316.85 K | 0.0367
in o-xylene, 320.55 K | 0.0418
in o-xylene, 323.95 K | 0.0476
in o-xylene, 327.55 K | 0.0544
in o-xylene, 331.35 K | 0.0624
in o-xylene, 335.25 K | 0.0719
in o-xylene, 339.35 K | 0.0831
in p-xylene, 289.55 K | 0.0126
in p-xylene, 293.65 K | 0.0145
in p-xylene, 297.55 K | 0.0168
in p-xylene, 301.95 K | 0.0198
in p-xylene, 306.15 K | 0.023
in p-xylene, 310.25 K | 0.0266
in p-xylene, 313.85 K | 0.0304
in p-xylene, 317.55 K | 0.0347
in p-xylene, 321.15 K | 0.0396
in p-xylene, 324.65 K | 0.0454
in p-xylene, 328.45 K | 0.0522
in p-xylene, 332.35 K | 0.0604
in p-xylene, 336.65 K | 0.07
in toluene, 277.45 K | 0.00969
in toluene, 280.55 K | 0.0107
in toluene, 283.85 K | 0.0122
in toluene, 287.85 K | 0.0145
in toluene, 293.05 K | 0.0178
in toluene, 297.95 K | 0.0211
in toluene, 301.85 K | 0.0241
in toluene, 305.35 K | 0.0273
in toluene, 308.75 K | 0.0308
in toluene, 312.35 K | 0.0347
in toluene, 315.85 K | 0.0393
in toluene, 319.45 K | 0.045
in toluene, 323.45 K | 0.052
in toluene, 327.75 K | 0.061
in toluene, 332.75 K | 0.0726
in toluene, 337.35 K | 0.0852

COc1cc(Cl)c(OC)cc1N
Conditions | solubility (mole fraction)
in ethanol, 279.35 K | 0.00274
in ethanol, 282.65 K | 0.00327
in ethanol, 286.45 K | 0.00386
in ethanol, 289.55 K | 0.00447
in ethanol, 292.15 K | 0.00497
in ethanol, 295.55 K | 0.00579
in ethanol, 299.45 K | 0.00695
in ethanol, 303.05 K | 0.00821
in ethanol, 305.85 K | 0.00938
in ethanol, 310.25 K | 0.0115
in ethanol, 313.95 K | 0.0137
in ethanol, 317.65 K | 0.0164
in ethanol, 321.55 K | 0.0201
in ethanol, 325.05 K | 0.024
in ethanol, 328.65 K | 0.0289
in ethanol, 331.55 K | 0.0344
in ethanol, 335.25 K | 0.0416
in m-xylene, 277.35 K | 0.00495
in m-xylene, 281.85 K | 0.00615
in m-xylene, 286.05 K | 0.00739
in m-xylene, 289.95 K | 0.00877
in m-xylene, 292.85 K | 0.0103
in m-xylene, 296.25 K | 0.012
in m-xylene, 299.35 K | 0.0139
in m-xylene, 302.35 K | 0.016
in m-xylene, 305.55 K | 0.0186
in m-xylene, 309.25 K | 0.0219
in m-xylene, 312.75 K | 0.0262
in m-xylene, 316.95 K | 0.0318
in m-xylene, 321.25 K | 0.0386
in m-xylene, 325.05 K | 0.0466
in m-xylene, 328.65 K | 0.0561
in m-xylene, 332.35 K | 0.0669
in m-xylene, 335.65 K | 0.0791
in methanol, 278.05 K | 0.00282
in methanol, 282.45 K | 0.00342
in methanol, 285.85 K | 0.00399
in methanol, 289.45 K | 0.00465
in methanol, 292.75 K | 0.0054
in methanol, 296.65 K | 0.00634
in methanol, 299.85 K | 0.00734
in methanol, 303.35 K | 0.00852
in methanol, 306.55 K | 0.0099
in methanol, 309.95 K | 0.0115
in methanol, 313.45 K | 0.0134
in methanol, 316.45 K | 0.0156
in methanol, 319.35 K | 0.0181
in methanol, 322.45 K | 0.0212
in methanol, 325.45 K | 0.0247
in methanol, 328.85 K | 0.0289
in o-xylene, 278.25 K | 0.0058
in o-xylene, 281.85 K | 0.00699
in o-xylene, 285.55 K | 0.00831
in o-xylene, 289.15 K | 0.00989
in o-xylene, 292.75 K | 0.0117
in o-xylene, 296.05 K | 0.0136
in o-xylene, 299.45 K | 0.0158
in o-xylene, 303.25 K | 0.0184
in o-xylene, 307.05 K | 0.0214
in o-xylene, 310.35 K | 0.0252
in o-xylene, 313.65 K | 0.0298
in o-xylene, 317.55 K | 0.0358
in o-xylene, 321.85 K | 0.0443
in o-xylene, 326.25 K | 0.0549
in o-xylene, 330.95 K | 0.0677
in o-xylene, 335.05 K | 0.0816
in p-xylene, 288.55 K | 0.00855
in p-xylene, 291.65 K | 0.00985
in p-xylene, 294.95 K | 0.0115
in p-xylene, 298.45 K | 0.0134
in p-xylene, 302.25 K | 0.0158
in p-xylene, 306.05 K | 0.0186
in p-xylene, 309.65 K | 0.022
in p-xylene, 313.55 K | 0.026
in p-xylene, 317.65 K | 0.031
in p-xylene, 321.25 K | 0.0371
in p-xylene, 325.25 K | 0.0447
in p-xylene, 329.55 K | 0.0539
in p-xylene, 334.25 K | 0.0651
in toluene, 277.65 K | 0.0065
in toluene, 281.95 K | 0.00831
in toluene, 286.05 K | 0.0101
in toluene, 290.05 K | 0.0126
in toluene, 293.35 K | 0.0146
in toluene, 296.45 K | 0.0169
in toluene, 299.65 K | 0.0194
in toluene, 302.75 K | 0.0224
in toluene, 306.25 K | 0.0263
in toluene, 309.95 K | 0.0312
in toluene, 313.75 K | 0.0373
in toluene, 317.65 K | 0.0447
in toluene, 321.75 K | 0.0536
in toluene, 325.45 K | 0.0641
in toluene, 328.95 K | 0.0761
in toluene, 332.25 K | 0.0894
in toluene, 335.35 K | 0.104
